Positions of bridges follow the written chain, without caps; N, C: chain ends. Non-standard residues stand in square brackets, D forms with d. Residues, ends and D or L forms follow the SMILES beside them. *: point of attachment. Malonyl(2,2-Me2,histaminyl) = CC(C)(C(=O)NCCc1cnc[nH]1)C(=O)*; Ala(1H-tetrazol-5-yl) = N[C@@H](Cc1nnn[nH]1)C(=O)O; αMePhe(2-F) = C[C@](N)(Cc1ccccc1F)C(=O)O; Nle = CCCC[C@H](N)C(=O)O; Aib = CC(C)(N)C(=O)O

The values below come from US20240270809A1, “ORAL GLP RECEPTOR AGONISTS” (priority 2020, published 2024).

Assay type in all cases: cell-based
Test [1] addresses T1, mouse GLP2 receptor (Mus musculus, UniProt Q5IXF8).
T1 construct: expressed in transfected cells; host or cells: HEK cells, transient transfection with GeneJuice
T1 sequence (Q5IXF8 1-512): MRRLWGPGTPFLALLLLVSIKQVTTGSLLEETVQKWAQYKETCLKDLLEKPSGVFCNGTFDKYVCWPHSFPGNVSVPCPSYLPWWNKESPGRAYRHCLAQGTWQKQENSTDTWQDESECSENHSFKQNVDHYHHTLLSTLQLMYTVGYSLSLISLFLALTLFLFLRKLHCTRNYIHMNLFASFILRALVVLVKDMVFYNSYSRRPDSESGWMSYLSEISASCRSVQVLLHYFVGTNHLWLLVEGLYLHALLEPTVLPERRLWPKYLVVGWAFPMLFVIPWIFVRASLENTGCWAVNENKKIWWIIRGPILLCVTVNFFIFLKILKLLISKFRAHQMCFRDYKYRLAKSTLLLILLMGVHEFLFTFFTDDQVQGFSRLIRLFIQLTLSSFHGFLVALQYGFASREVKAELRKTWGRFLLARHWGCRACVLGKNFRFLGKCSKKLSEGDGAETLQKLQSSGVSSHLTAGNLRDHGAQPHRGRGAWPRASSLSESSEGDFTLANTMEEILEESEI
In words: cAMP accumulation assay, functional agonism of mouse GLP2 receptor. The following applies: HEK cells transiently transfected with mouse GLP2 receptor, HTRF cAMP. The method, then: CAMP production upon agonist stimulation of mouse GLP2 or GLP1 receptors was assessed utilizing HiRange cAMP kit (Cisbio). In brief, HEK cells were transiently transfected for 24 hours with cDNA using GeneJuice Transfection reagent (EMD Millipore) and frozen at −80° C. for later use in the assay. On the day, various concentrations of compounds were dispensed using ECHO-555 (LabCyte) to a total volume of 100 nl into a low volume 384-well Proxi plate (Perkin Elmer) followed by addition of 10 μl of cell suspension delivering 8000 cells per well. Cells were prepared in the assay buffer (HBSS (Lonza) supplemented with 0.5 mM IBMX (Tocris)). After 45 min incubation at 37° C., the reaction was stopped by addition of the HTRF detection reagents in the lysis buffer provided in the kit. Following 1-hour incubation at RT, plates were read on Pherastar FS (BMG Labtech, Inc.) using standard HTRF settings. Dotmatics Studies software was used for calculation of pEC50 values by fitting data to a four-parameter concentration response curve.
In general terms: Cyclic AMP is a second messenger, typically raised through Gs and lowered through Gi signalling.

For test [2], the target named is T2, human GLP2 receptor (Homo sapiens, UniProt O95838).
T2 construct: expressed in transfected cells; host or cells: HEK cells, BacMam virus transduction
T2 sequence (O95838 1-553): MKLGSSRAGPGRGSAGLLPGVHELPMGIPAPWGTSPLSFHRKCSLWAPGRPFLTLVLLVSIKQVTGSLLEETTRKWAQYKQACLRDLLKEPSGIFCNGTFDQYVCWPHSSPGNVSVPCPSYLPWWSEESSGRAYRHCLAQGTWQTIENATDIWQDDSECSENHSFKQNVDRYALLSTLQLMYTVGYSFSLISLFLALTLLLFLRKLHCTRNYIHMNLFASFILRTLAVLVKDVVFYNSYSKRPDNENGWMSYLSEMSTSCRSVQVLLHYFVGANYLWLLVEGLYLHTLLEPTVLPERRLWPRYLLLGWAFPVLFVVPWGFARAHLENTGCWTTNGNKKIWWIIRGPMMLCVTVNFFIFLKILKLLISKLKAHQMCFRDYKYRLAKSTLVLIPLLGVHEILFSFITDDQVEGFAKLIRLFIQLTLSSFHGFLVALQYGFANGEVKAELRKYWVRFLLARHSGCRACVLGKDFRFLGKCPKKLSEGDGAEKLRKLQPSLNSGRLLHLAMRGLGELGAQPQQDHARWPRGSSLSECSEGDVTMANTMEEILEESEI
In words: cAMP accumulation assay, functional agonism of human GLP2 receptor. The following applies: HEK cells infected with human GLP2 receptor BacMam virus, HTRF cAMP; for Emax: HEK293, read-out: Human GLP-2R agonist cAMP Emax; for EC50: read-out: Human GLP-2R agonist cAMP pEC50 (converted). An outline of the steps: (§1)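 Frozen HEK cells, previously BacMam-infected 24 h to express either receptor, are stimulated for 45 min at 37° C in IBMX-containing (0.5 mM) HBSS. The reaction is then terminated with HTRF reagents in lysis buffer.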

In test [3] the target is T3, human GLP1 receptor (Homo sapiens, UniProt P43220).
T3 construct: expressed in transfected cells; host or cells: HEK cells, BacMam virus transduction
T3 sequence (P43220 24-463): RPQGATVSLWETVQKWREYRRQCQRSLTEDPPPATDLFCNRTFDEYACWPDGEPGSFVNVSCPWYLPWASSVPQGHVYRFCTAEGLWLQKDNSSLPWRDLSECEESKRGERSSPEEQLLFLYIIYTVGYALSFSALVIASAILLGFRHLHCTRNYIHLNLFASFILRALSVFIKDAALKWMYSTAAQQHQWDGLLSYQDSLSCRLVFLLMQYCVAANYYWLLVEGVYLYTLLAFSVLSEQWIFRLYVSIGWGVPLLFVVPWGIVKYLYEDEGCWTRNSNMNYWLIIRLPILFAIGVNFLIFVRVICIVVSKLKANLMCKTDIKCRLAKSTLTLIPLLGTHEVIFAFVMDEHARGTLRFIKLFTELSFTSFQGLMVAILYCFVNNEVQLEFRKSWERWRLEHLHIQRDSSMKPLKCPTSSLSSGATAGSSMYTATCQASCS
As to the kind of experiment: cAMP accumulation assay, functional agonism of human GLP1 receptor. To be noted: HEK cells infected with human GLP1 receptor BacMam virus, HTRF cAMP; for Emax: HEK293, read-out: Human GLP-1R agonist cAMP Emax; for EC50: read-out: Human GLP-1R agonist cAMP pEC50 (converted). An outline of the steps: as §1

Take `CCCC[C@@H]1NC(=O)[C@H](CCC(=O)O)NC(=O)[C@@H](NC(=O)[C@H](CO)NC(=O)[C@](C)(Cc2ccccc2F)NC(=O)[C@H](CO)NC(=O)[C@@H](C)NC(=O)[C@H](CC(=O)O)NC(=O)C(C)(C)C(=O)NCCc2c[nH]cn2)CCCCNC(=O)C[C@@H](C(=O)N[C@H](C(=O)N[C@@H](CC(C)C)C(=O)N[C@@H](CC(=O)O)C(=O)N[C@H]2CCC(=O)NCCCC[C@@H](C(=O)N[C@@H](CC(=O)O)C(=O)N[C@@H](Cc3ccccc3)C(=O)N[C@H](C(=O)N[C@@H](CC(N)=O)C(=O)N[C@@H](Cc3c[nH]c4ccccc34)C(=O)N[C@@H](CC(C)C)C(=O)N[C@H](C(=O)N[C@@H](CCC(N)=O)C(=O)N[C@H]3CCC(=O)NCCCC[C@@H](C(N)=O)NC(=O)[C@H]([C@@H](C)O)NC(=O)[C@H]([C@@H](C)CC)NC(=O)[C@H](CCCCN)NC3=O)[C@@H](C)CC)[C@@H](C)CC)NC(=O)[C@H](C)NC(=O)[C@H](C)NC(=O)[C@H](CCCCN)NC2=O)[C@@H](C)CC)NC(=O)[C@@H](Cc2ccccc2)NC1=O` [Example 26] ({Malonyl(2,2-Me2,histaminyl)}-D[dA]S[αMePhe(2-F)]SKE[Nle][dF]DILDEKAAKDFINWLIQEKITK-NH2; lactam 6-10, 14-18, 27-31 (inferred); C-terminus assumed): the Emax in test [1] (HEK293, read-out: Mouse GLP-2R agonist cAMP Emax) amounted to 86.4%; in test [2], 103%; in test [3], 97.1%. The EC50 was 3.16 nM in test [1] (read-out: Mouse GLP-2R agonist cAMP pEC50 (converted)), 0.0158 nM in test [2] and 0.158 nM in test [3].

Take `CCCC[C@@H]1NC(=O)[C@H](CCC(=O)O)NC(=O)[C@@H](NC(=O)[C@H](CO)NC(=O)[C@H](Cc2ccccc2)NC(=O)[C@H](CO)NC(=O)CNC(=O)[C@H](Cc2nn[nH]n2)NC(=O)C(C)(C)C(=O)NCCc2c[nH]cn2)CCCCNC(=O)C[C@@H](C(=O)N[C@H](C(=O)N[C@@H](CC(C)C)C(=O)N[C@@H](CC(=O)O)C(=O)N[C@@H](CC(C)C)C(=O)N[C@@H](CCCCN)C(=O)N[C@@H](C)C(=O)N[C@@H](C)C(=O)NC(C)(C)C(=O)N[C@@H](CC(=O)O)C(=O)N[C@@H](Cc2ccccc2)C(=O)N[C@H](C(=O)N[C@@H](CC(N)=O)C(=O)N[C@@H](Cc2c[nH]c3ccccc23)C(=O)N[C@@H](CC(C)C)C(=O)N[C@H](C(=O)N[C@@H](CCC(N)=O)C(=O)N[C@H](C(=O)N[C@H]2CCC(=O)NCCCC[C@@H](C(N)=O)NC(=O)[C@H]([C@@H](C)O)NC(=O)[C@H]([C@@H](C)CC)NC2=O)[C@@H](C)O)[C@@H](C)CC)[C@@H](C)CC)[C@@H](C)CC)NC(=O)[C@@H](Cc2ccccc2)NC1=O` [Example 108] ({Malonyl(2,2-Me2,histaminyl)}-[Ala(1H-tetrazol-5-yl)]GSFSKE[Nle][dF]DILDLKAA[Aib]DFINWLIQTEITK-NH2; lactam 6-10, 28-31; C-terminus assumed): in test [2], the maximal effect (Emax) is 104% and the EC50 was 0.501 nM. Besides, in test [3], the Emax is 92.1% and the EC50 is 3.98 nM.

With `CCCC[C@@H]1NC(=O)[C@H](CCC(=O)O)NC(=O)[C@@H](NC(=O)[C@H](CO)NC(=O)[C@H](Cc2ccccc2)NC(=O)[C@H](CO)NC(=O)CNC(=O)[C@H](Cc2nn[nH]n2)NC(=O)C(C)(C)C(=O)NCCc2c[nH]cn2)CCCCNC(=O)C[C@@H](C(=O)N[C@H](C(=O)N[C@@H](CC(C)C)C(=O)N[C@@H](CC(=O)O)C(=O)N[C@H]2CC(=O)NCCCC[C@@H](C(=O)N[C@@H](CC(=O)O)C(=O)N[C@@H](Cc3ccccc3)C(=O)N[C@H](C(=O)N[C@@H](CC(N)=O)C(=O)N[C@@H](Cc3c[nH]c4ccccc34)C(=O)N[C@@H](CC(C)C)C(=O)N[C@H](C(=O)N[C@@H](CCC(N)=O)C(=O)N[C@H](C(=O)N[C@@H](CCCCN)C(=O)N[C@H](C(=O)N[C@H](C(=O)N[C@@H](Cc3ccccc3)C(N)=O)[C@@H](C)O)[C@@H](C)CC)[C@@H](C)O)[C@@H](C)CC)[C@@H](C)CC)NC(=O)[C@H](C)NC(=O)[C@H](C)NC(=O)[C@H](CCCCN)NC2=O)[C@@H](C)CC)NC(=O)[C@@H](Cc2ccccc2)NC1=O` [Example 114] ({Malonyl(2,2-Me2,histaminyl)}-[Ala(1H-tetrazol-5-yl)]GSFSKE[Nle][dF]DILDDKAAKDFINWLIQTKITF-NH2; lactam 6-10, 14-18 (inferred); C-terminus assumed), in test [2], the Emax stood at 102% and the EC50 is 0.02 nM. Also, in test [3], the Emax is 89.1% and the EC50 is 3.16 nM.

As to `CCCC[C@@H]1NC(=O)[C@H](CCC(=O)O)NC(=O)[C@@H](NC(=O)[C@H](CO)NC(=O)[C@H](Cc2ccccc2)NC(=O)[C@H](CO)NC(=O)CNC(=O)[C@H](Cc2nn[nH]n2)NC(=O)C(C)(C)C(=O)NCCc2c[nH]cn2)CCCCNC(=O)C[C@@H](C(=O)N[C@H](C(=O)N[C@@H](CC(C)C)C(=O)N[C@@H](CC(=O)O)C(=O)N[C@H]2CCC(=O)NCCCC[C@@H](C(=O)N[C@@H](CC(=O)O)C(=O)N[C@@H](Cc3ccccc3)C(=O)N[C@H](C(=O)N[C@@H](CC(N)=O)C(=O)N[C@@H](Cc3c[nH]c4ccccc34)C(=O)N[C@@H](CC(C)C)C(=O)N[C@H](C(=O)N[C@@H](CCC(N)=O)C(=O)N[C@H](C(=O)N[C@@H](CCCCN)C(=O)N[C@H](C(=O)N[C@H](C(=O)N[C@@H](Cc3ccccc3)C(N)=O)[C@@H](C)O)[C@@H](C)CC)[C@@H](C)O)[C@@H](C)CC)[C@@H](C)CC)NC(=O)[C@H](C)NC(=O)[C@H](C)NC(=O)[C@H](CCCCN)NC2=O)[C@@H](C)CC)NC(=O)[C@@H](Cc2ccccc2)NC1=O` [Example 115] ({Malonyl(2,2-Me2,histaminyl)}-[Ala(1H-tetrazol-5-yl)]GSFSKE[Nle][dF]DILDEKAAKDFINWLIQTKITF-NH2; lactam 6-10, 14-18 (inferred); C-terminus assumed), the Emax in test [2] worked out at 104%; in test [3] it was 92%. In addition, the EC50 in test [2] was 0.02 nM; in test [3] it was 0.501 nM.

What is called Emax is the greatest response seen or fitted, relative to the assay's reference.
